In US20230348376A1 (TEIJIN PHARMA LIMITED, priority 2020, published 2023):
Read-outs that look alike come from different tables or passages of the source.

Tests used:
[1] = test system: rat oligodendrocyte progenitor cells; assay: Promotive activity of rat oligodendrocyte progenitor cell differentiation-2 (immunostaining of MBP); type: cell-based; conditions: vitamin D derivative 2 μM, T3 30 nM, 4 days
How it was run: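 Vitamin D derivatives scored as symbols for promoting differentiation, read out by MBP immunostaining. OPCs taken from supernatant after about 22 h shaking (37 °C, 200 rpm) in separation medium.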

[2] = Evaluation of brain penetration in mice (blood and brain concentration at brain Cmax); type: in vivo, mouse; conditions: 1 mg/kg single oral dose, C57BL/6J mice; for Concentration in blood (mean ± SD) at brain Cmax / Concentration in brain (mean ± SD) at brain Cmax: n=3; for Kp: male, mouse, brain/plasma, read-out: Concentration in brain/in blood ratio at brain Cmax
How it was run: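 Male C57BL/6J mice (8 weeks, n=3) dosed orally once at 1 […] mg/kg; plasma and brain collected at 0.25, 0.5, 1, 2, 4 and 8 h. Compound extracted with acetonitrile from brain homogenate and plasma, quantified by LC/MS/MS.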

human VDR = molecular target: T1, human VDR (Homo sapiens, UniProt P11473); assay: Evaluation of VDR transcription activity in human osteoblasts (HOS cells), luciferase reporter; conditions: Activity (EC50, VDR transcription activity), HOS cells transfected with human VDR, human RXRα and DR3 luciferase reporter; 21 hours
T1 sequence (P11473 1-427): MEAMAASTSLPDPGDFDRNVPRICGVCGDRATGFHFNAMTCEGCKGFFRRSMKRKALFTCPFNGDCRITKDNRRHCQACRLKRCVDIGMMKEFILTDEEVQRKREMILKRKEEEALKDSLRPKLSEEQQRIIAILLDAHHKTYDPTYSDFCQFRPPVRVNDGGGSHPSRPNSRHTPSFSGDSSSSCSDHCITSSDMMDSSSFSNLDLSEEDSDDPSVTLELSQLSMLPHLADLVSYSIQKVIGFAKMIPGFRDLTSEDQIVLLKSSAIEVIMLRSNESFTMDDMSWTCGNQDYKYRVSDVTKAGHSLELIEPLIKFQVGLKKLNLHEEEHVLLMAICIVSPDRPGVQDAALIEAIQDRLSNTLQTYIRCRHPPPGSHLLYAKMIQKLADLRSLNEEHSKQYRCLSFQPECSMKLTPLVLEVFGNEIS
T1 sequence (P19793 1-462 partner): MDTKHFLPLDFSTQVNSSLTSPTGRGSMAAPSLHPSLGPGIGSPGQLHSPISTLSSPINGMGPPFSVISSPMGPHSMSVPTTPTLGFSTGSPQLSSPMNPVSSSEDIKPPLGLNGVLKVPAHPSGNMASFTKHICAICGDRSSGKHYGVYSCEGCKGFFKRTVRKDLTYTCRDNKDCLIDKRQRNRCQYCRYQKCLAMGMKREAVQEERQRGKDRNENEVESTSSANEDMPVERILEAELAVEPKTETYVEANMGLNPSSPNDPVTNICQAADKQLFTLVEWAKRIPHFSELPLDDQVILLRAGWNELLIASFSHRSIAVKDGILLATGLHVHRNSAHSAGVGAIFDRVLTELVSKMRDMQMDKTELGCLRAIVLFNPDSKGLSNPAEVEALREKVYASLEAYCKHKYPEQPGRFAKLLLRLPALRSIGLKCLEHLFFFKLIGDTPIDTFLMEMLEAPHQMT

SMILES	Concentration in blood (mean ± SD) at brain Cmax [2] [nM]	Concentration in brain (mean ± SD) at brain Cmax [2] [pmol/g]	Kp ([2]; C57BL/6J, po, 1 mg/kg)	EC50 (human VDR) [nM]	Concentration in brain/in blood ratio at brain Cmax [2]	Mean (number of MBP-positive cells/number of Hoechst33342-positive cells) ([1]; Test 1)	Mean (number of MBP-positive cells/number of Hoechst33342-positive cells) ([1]; Test 2)	Kp [2]
C=C1/C(=C\C=C2/CCC[C@]3(C)[C@@H]([C@H](C)CN4CC[C@H](C(F)F)C4)CC[C@@H]23)C[C@@H](O)C[C@@H]1O [Compound B020, (1R,3S,Z)-5-(2-((1R,3aS,7aR,E)-1-((S)-1-((S)-3-(difluoromethyl)pyrrolidin-1-yl)propan-2-yl)-7a-methyloctahydro-4H-inden-4-ylidene)ethylidene)-4-methylenecyclohexane-1,3-diol]	676 ± 175	410 ± 23	0.61	10 to 100		0.38		
C=C1/C(=C\C=C2/CCC[C@]3(C)[C@@H]([C@H](C)CN4CC[C@H](C(C)(F)F)C4)CC[C@@H]23)C[C@@H](O)[C@H](C)[C@@H]1O [Compound B029, (1R,2S,3S,Z)-5-(2-((1R,3aS,7aR,E)-1-((S)-1-((S)-3-(1,1-difluoroethyl)pyrrolidin-1-yl)propan-2-yl)-7a-methyloctahydro-4H-inden-4-ylidene)ethylidene)-2-methyl-4-methylenecyclohexane-1,3-diol]	161 ± 40	156 ± 15	0.97	1 to 10		0.31		
C[C@H](CN1CC[C@H](C(F)F)C1)[C@H]1CC[C@H]2/C(=C/C=C3C[C@@H](O)C[C@H](O)C3)CCC[C@]12C [Compound B022, (1R,3R)-5-(2-((1R,3aS,7aR,E)-1-((S)-1-((S)-3-(difluoromethyl)pyrrolidin-1-yl)propan-2-yl)-7a-methyloctahydro-4H-inden-4-ylidene)ethylidene)cyclohexane-1,3-diol]	316 ± 84	529 ± 53	1.67	10 to 100		0.47		
C[C@H](CN1CCOC2(CC2)C1)[C@H]1CC[C@H]2/C(=C/C=C3C[C@@H](O)C[C@H](O)C3)CCC[C@]12C [Compound D019, (1R,3R)-5-(2-((1R,3aS,7aR,E)-1-((S)-1-(4-oxa-7-azaspiro[2.5]octan-7-yl)propan-2-yl)-7a-methyloctahydro-4H-inden-4-ylidene)ethylidene)cyclohexane-1,3-diol]	280 ± 53	811 ± 163		10 to 100			0.57	2.89
C=C1[C@H](O)CC(=C/C=C2\CCC[C@]3(C)[C@@H]([C@H](C)CN4CC[C@@H](CC(F)F)C4)CC[C@@H]23)C[C@H]1O [Compound B041, (1R,3R)-5-(2-((1R,3aS,7aR,E)-1-((S)-1-((S)-3-(2,2-difluoroethyl)pyrrolidin-1-yl)propan-2-yl)-7a-methyloctahydro-4H-inden-4-ylidene)ethylidene)-2-methylenecyclohexane-1,3-diol]	207 ± 59	317 ± 19	1.53	1 to 10		0.56		
C=C1/C(=C\C=C2/CCC[C@]3(C)[C@@H]([C@H](C)CN4CC[C@H](CC(F)F)C4)CC[C@@H]23)C[C@@H](O)C[C@@H]1O [Compound B036]	61 ± 11	68 ± 36	1.12	10 to 100		0.59		
C=C1/C(=C\C=C2/CCC[C@]3(C)[C@@H]([C@H](C)CN4CC[C@@H](CC(F)F)C4)CC[C@@H]23)C[C@@H](O)C[C@@H]1O [Compound B037, (1R,3S,Z)-5-(2-((1R,3aS,7aR,E)-1-((S)-1-((S)-3-(2,2-difluoroethyl)pyrrolidin-1-yl)propan-2-yl)-7a-methyloctahydro-4H-inden-4-ylidene)ethylidene)-4-methylenecyclohexane-1,3-diol]	88 ± 19	74 ± 17	0.84	10 to 100		0.49		
C[C@H](CN1CC[C@@H](CCC(F)F)C1)[C@H]1CC[C@H]2/C(=C/C=C3C[C@@H](O)C[C@H](O)C3)CCC[C@]12C [Compound B064, (1R,3R)-5-(2-((1R,3aS,7aR,E)-1-((S)-1-((R)-3-(3,3-difluoropropyl)pyrrolidin-1-yl)propan-2-yl)-7a-methyloctahydro-4H-inden-4-ylidene)ethylidene)cyclohexane-1,3-diol]	72 ± 11	38 ± 12	0.53	100 to 1000			0.61	
C[C@H](CN1CC[C@H](CC(F)F)C1)[C@H]1CC[C@H]2/C(=C/C=C3C[C@@H](O)C[C@H](O)C3)CCC[C@]12C [Compound B042, (1R,3R)-5-(2-((1R,3aS,7aR,E)-1-((S)-1-((R)-3-(2,2-difluoroethyl)pyrrolidin-1-yl)propan-2-yl)-7a-methyloctahydro-4H-inden-4-ylidene)ethylidene)cyclohexane-1,3-diol]	79 ± 7	60 ± 5	0.75	10 to 100		0.62	0.53	
C[C@H](CN1CC[C@H](OCC(F)F)C1)[C@H]1CC[C@H]2/C(=C/C=C3C[C@@H](O)C[C@H](O)C3)CCC[C@]12C [Compound B057, (1R,3R)-5-(2-((1R,3aS,7aR,E)-1-((S)-1-((S)-3-(2,2-difluoroethoxy)pyrrolidin-1-yl)propan-2-yl)-7a-methyloctahydro-4H-inden-4-ylidene)ethylidene)cyclohexane-1,3-diol]	271 ± 16	141 ± 8	0.52	100 to 1000			0.57	

Continued, in another order:

Concentration in blood (mean ± SD) at brain Cmax [2] [nM]	Concentration in brain (mean ± SD) at brain Cmax [2] [pmol/g]	Kp ([2]; C57BL/6J, po, 1 mg/kg)	EC50 (human VDR) [nM]	Concentration in brain/in blood ratio at brain Cmax [2]	SMILES	Mean (number of MBP-positive cells/number of Hoechst33342-positive cells) ([1]; Test 1)	Mean (number of MBP-positive cells/number of Hoechst33342-positive cells) ([1]; Test 2)	Kp [2]
190 ± 23	338 ± 36	1.78	10 to 100		C=C1[C@H](O)CC(=C/C=C2\CCC[C@]3(C)[C@@H]([C@H](C)CN4CCC(C(C)(F)F)CC4)CC[C@@H]23)C[C@H]1O [Compound C055, (1R,3R)-5-(2-((1R,3aS,7aR,E)-1-((S)-1-(4-(1,1-difluoroethyl)piperidin-1-yl)propan-2-yl)-7a-methyloctahydro-4H-inden-4-ylidene)ethylidene)-2-methylenecyclohexane-1,3-diol]		0.48	
853 ± 89	495 ± 16		10 to 100	0.58	C=C1[C@H](O)CC(=C/C=C2\CCC[C@]3(C)[C@@H]([C@H](C)CN4CCCC(O)(C(F)F)C4)CC[C@@H]23)C[C@H]1O (single isomer, unassigned) [Compound C036b]		0.22	
849 ± 40	566 ± 89	0.67	< 1		C=C1[C@H](O)CC(=C/C=C2\CCC[C@]3(C)[C@@H]([C@H](C)CN4CCCC(O)(C(F)F)C4)CC[C@@H]23)C[C@H]1O (single isomer, unassigned) [Compound C036a]		0.53	
